Laboratory results taken from PubChem BioAssay (NCI).
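Test compounds were applied to cells in 96-well plates for 48 hours at 5 doses. The concentration for full growth arrest is given as TGI.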

Assays:
Test in all cases: DTP human tumour cell line panel, 48 h
[1] = system: HCC-2998 colon
[2] = system: COLO 205 colon
[3] = system: RXF 393 renal
[4] = system: DU-145 prostate
[5] = system: SN12C renal
[6] = system: MOLT-4 leukemia
[7] = system: MDA-N
[8] = system: SK-MEL-5 melanoma
[9] = system: OVCAR-3 ovarian
[10] = system: NCI-H522 lung
[11] = system: UACC-257 melanoma
[12] = system: SF-295 CNS
[13] = system: IGROV1 ovarian
[14] = system: M14 melanoma
[15] = system: CCRF-CEM leukemia
[16] = system: UO-31 renal
[17] = system: T-47D breast
[18] = system: BT-549 breast
[19] = system: U251 CNS
[20] = system: A549 NSCLC
[21] = system: K-562 leukemia
[22] = system: SK-OV-3 ovarian
[23] = system: KM12 colon
[24] = system: PC-3 prostate
[25] = system: HOP-62 NSCLC
[26] = system: MCF7 breast
[27] = system: NCI/ADR-RES ovarian
[28] = system: CAKI-1 renal
[29] = system: MALME-3M melanoma
[30] = system: MDA-MB-435
[31] = system: HCT-116 colon
[32] = system: MDA-MB-231 breast
[33] = system: OVCAR-4 ovarian
[34] = system: HCT-15 colon
[35] = system: 786-0 renal
[36] = system: UACC-62 melanoma
[37] = system: NCI-H226 lung
[38] = system: A498 renal
[39] = system: RPMI-8226 leukemia
[40] = system: ACHN renal
[41] = system: NCI-H23 lung
[42] = system: HT29 colon
[43] = system: HS 578T breast
[44] = system: EKVX NSCLC
[45] = system: TK-10 renal
[46] = system: SK-MEL-28 melanoma
[47] = system: SK-MEL-2 melanoma
[48] = system: SW-620 colon
[49] = system: OVCAR-8 ovarian
[50] = system: SNB-19 CNS
[51] = system: OVCAR-5 ovarian
[52] = system: SF-268 CNS
[53] = system: SNB-75 CNS
[54] = system: NCI-H460 lung

`CC(C)c1cc(C(C)C)c(S(=O)(=O)N/N=C2\CC3CCC2(C)C3(C)C)c(C(C)C)c1` (stereo not given) was tested. Which TGI [1] did it give?
The TGI was greater than 100 µM.

What about the TGI [2] of the same molecule?
The TGI was 79.3 µM.

And the TGI [3]?
The TGI was 58.5 µM.

What about the TGI [4] of the same molecule?
Its TGI is greater than 100 µM.

What about the TGI [5] of the same molecule?
Its TGI is 38.2 µM.

What about the TGI [6] of the same molecule?
Its TGI is 40 µM.

What about the TGI [7] of the same molecule?
The TGI was 64.8 µM.

What about the TGI [8] of the same molecule?
Its TGI is 30.5 µM.

And the TGI [9]?
Its TGI is greater than 100 µM.

What about the TGI [10] of the same molecule?
The TGI was 36.8 µM.

What about the TGI [11] of the same molecule?
The TGI was 26.2 µM.

What about the TGI [12] of the same molecule?
Its TGI is 63.9 µM.

What about the TGI [13] of the same molecule?
The TGI was greater than 100 µM.

And the TGI [14]?
The TGI was greater than 100 µM.

And the TGI [15]?
The TGI was 22.8 µM.

And the TGI [16]?
The TGI was greater than 100 µM.

What about the TGI [17] of the same molecule?
The TGI was 68 µM.

And the TGI [18]?
Its TGI is greater than 100 µM.

What about the TGI [19] of the same molecule?
Its TGI is greater than 100 µM.

What about the TGI [20] of the same molecule?
Its TGI is greater than 100 µM.

What about the TGI [21] of the same molecule?
Its TGI is greater than 100 µM.

What about the TGI [22] of the same molecule?
The TGI was greater than 100 µM.

And the TGI [23]?
The TGI was greater than 100 µM.

What about the TGI [24] of the same molecule?
Its TGI is greater than 100 µM.

And the TGI [25]?
The TGI was greater than 100 µM.

What about the TGI [26] of the same molecule?
The TGI was 30.7 µM.

What about the TGI [27] of the same molecule?
Its TGI is greater than 100 µM.

What about the TGI [28] of the same molecule?
Its TGI is greater than 100 µM.

And the TGI [29]?
The TGI was greater than 100 µM.

What about the TGI [30] of the same molecule?
The TGI was greater than 100 µM.

And the TGI [31]?
Its TGI is greater than 100 µM.

What about the TGI [32] of the same molecule?
The TGI was greater than 100 µM.

And the TGI [33]?
Its TGI is greater than 100 µM.

And the TGI [34]?
Its TGI is greater than 100 µM.

And the TGI [35]?
The TGI was greater than 100 µM.

And the TGI [36]?
The TGI was greater than 100 µM.

And the TGI [37]?
The TGI was 80 µM.

And the TGI [38]?
Its TGI is 32.7 µM.

And the TGI [39]?
Its TGI is 21.2 µM.

What about the TGI [40] of the same molecule?
Its TGI is greater than 100 µM.

And the TGI [41]?
The TGI was greater than 100 µM.

And the TGI [42]?
The TGI was 43.8 µM.

And the TGI [43]?
Its TGI is greater than 100 µM.

And the TGI [44]?
Its TGI is 71.5 µM.

What about the TGI [45] of the same molecule?
The TGI was greater than 100 µM.

And the TGI [46]?
Its TGI is greater than 100 µM.

What about the TGI [47] of the same molecule?
The TGI was greater than 100 µM.

And the TGI [48]?
The TGI was greater than 100 µM.

What about the TGI [49] of the same molecule?
The TGI was greater than 100 µM.

What about the TGI [50] of the same molecule?
The TGI was greater than 100 µM.

What about the TGI [51] of the same molecule?
The TGI was greater than 100 µM.

And the TGI [52]?
The TGI was greater than 100 µM.

`COC(=O)[C@@H](N1C(=O)c2ccccc2C1=O)C1(C)CC(Cl)=NO1` (stereo not given in full) was tested. Which TGI [53] did it give?
Its TGI is 35.9 µM.

What about the TGI [1] of the same molecule?
Its TGI is greater than 100 µM.

What about the TGI [2] of the same molecule?
The TGI was greater than 100 µM.

And the TGI [3]?
Its TGI is greater than 100 µM.

And the TGI [4]?
Its TGI is greater than 100 µM.

And the TGI [5]?
Its TGI is greater than 100 µM.

What about the TGI [7] of the same molecule?
Its TGI is greater than 100 µM.

What about the TGI [8] of the same molecule?
Its TGI is greater than 100 µM.

What about the TGI [9] of the same molecule?
Its TGI is greater than 100 µM.

What about the TGI [10] of the same molecule?
Its TGI is 79.1 µM.

What about the TGI [11] of the same molecule?
Its TGI is greater than 100 µM.

And the TGI [12]?
Its TGI is 74.3 µM.

What about the TGI [54] of the same molecule?
The TGI was greater than 100 µM.

And the TGI [13]?
The TGI was 58.2 µM.

What about the TGI [14] of the same molecule?
The TGI was greater than 100 µM.

And the TGI [15]?
Its TGI is greater than 100 µM.

And the TGI [16]?
The TGI was greater than 100 µM.

And the TGI [17]?
The TGI was greater than 100 µM.

What about the TGI [18] of the same molecule?
Its TGI is greater than 100 µM.

What about the TGI [19] of the same molecule?
The TGI was 77.2 µM.

What about the TGI [20] of the same molecule?
Its TGI is greater than 100 µM.

What about the TGI [21] of the same molecule?
The TGI was greater than 100 µM.

What about the TGI [22] of the same molecule?
Its TGI is greater than 100 µM.

And the TGI [23]?
Its TGI is greater than 100 µM.

What about the TGI [24] of the same molecule?
The TGI was greater than 100 µM.

And the TGI [25]?
The TGI was 38.9 µM.

What about the TGI [26] of the same molecule?
Its TGI is greater than 100 µM.

What about the TGI [27] of the same molecule?
Its TGI is 68.2 µM.

And the TGI [28]?
The TGI was 83.7 µM.

What about the TGI [29] of the same molecule?
Its TGI is greater than 100 µM.

And the TGI [30]?
Its TGI is greater than 100 µM.

And the TGI [31]?
Its TGI is greater than 100 µM.

And the TGI [32]?
The TGI was 60.3 µM.

And the TGI [33]?
Its TGI is greater than 100 µM.

What about the TGI [34] of the same molecule?
Its TGI is greater than 100 µM.

What about the TGI [35] of the same molecule?
Its TGI is greater than 100 µM.

And the TGI [36]?
Its TGI is greater than 100 µM.

And the TGI [37]?
Its TGI is greater than 100 µM.

What about the TGI [38] of the same molecule?
Its TGI is 99.7 µM.

What about the TGI [39] of the same molecule?
Its TGI is greater than 100 µM.

What about the TGI [40] of the same molecule?
The TGI was greater than 100 µM.

And the TGI [41]?
The TGI was greater than 100 µM.

And the TGI [42]?
The TGI was greater than 100 µM.

What about the TGI [43] of the same molecule?
The TGI was 75.3 µM.

And the TGI [44]?
The TGI was greater than 100 µM.

And the TGI [45]?
Its TGI is 82.4 µM.

And the TGI [46]?
Its TGI is greater than 100 µM.

And the TGI [47]?
Its TGI is greater than 100 µM.

What about the TGI [48] of the same molecule?
Its TGI is greater than 100 µM.

And the TGI [49]?
The TGI was 37 µM.

What about the TGI [50] of the same molecule?
Its TGI is 56.2 µM.

And the TGI [51]?
The TGI was greater than 100 µM.

And the TGI [52]?
The TGI was 76.9 µM.
